In ChEMBL document CHEMBL5212743, “Selectivity Literature for EUbOPEN Chemogenomics Library wave 3” (2023):
One block for each compound: values may come before it.

What was measured:
[1] = target: Mitogen-activated protein kinase 10 (Homo sapiens, UniProt P53779); assay: Selectivity interaction (KinomeScan (DiscoverX)) EUB0000704a MAPK10; details: at 1 µM
[2] = target: Sodium-dependent dopamine transporter (Homo sapiens, UniProt Q01959); assay: Selectivity interaction (GPCR panel (PDSP screen)) EUB0000704a SLC6A3
[3] = target: T1, Serine/threonine-protein kinase PLK1 (Homo sapiens, UniProt P53350); assay: Selectivity interaction (KinomeScan (DiscoverX)) EUB0000704a PLK1; details: at 1 µM
T1 sequence (P53350 whole entry): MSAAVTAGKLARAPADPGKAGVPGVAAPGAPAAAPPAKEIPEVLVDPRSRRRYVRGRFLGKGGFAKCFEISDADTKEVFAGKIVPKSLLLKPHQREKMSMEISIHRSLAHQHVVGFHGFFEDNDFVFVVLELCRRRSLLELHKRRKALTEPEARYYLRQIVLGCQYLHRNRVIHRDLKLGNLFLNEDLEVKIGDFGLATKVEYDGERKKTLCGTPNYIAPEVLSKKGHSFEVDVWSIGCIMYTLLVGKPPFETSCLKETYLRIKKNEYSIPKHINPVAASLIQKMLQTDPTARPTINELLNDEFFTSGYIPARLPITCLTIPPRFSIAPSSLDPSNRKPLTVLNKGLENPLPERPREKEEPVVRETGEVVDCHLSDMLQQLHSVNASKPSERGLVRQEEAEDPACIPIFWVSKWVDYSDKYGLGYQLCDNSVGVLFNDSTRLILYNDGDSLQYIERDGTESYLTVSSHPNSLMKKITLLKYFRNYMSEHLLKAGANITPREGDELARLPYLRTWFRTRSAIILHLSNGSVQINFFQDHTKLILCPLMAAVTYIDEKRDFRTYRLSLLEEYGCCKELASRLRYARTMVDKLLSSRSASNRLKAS

[4] = target: Serine/threonine-protein kinase WNK4 (Homo sapiens) (UniProt Q96J92); assay: Selectivity interaction (KinomeScan (DiscoverX)) EUB0000704a WNK4; details: at 1 µM
Chain of Serine/threonine-protein kinase WNK4 (Homo sapiens) (Q96J92 whole entry): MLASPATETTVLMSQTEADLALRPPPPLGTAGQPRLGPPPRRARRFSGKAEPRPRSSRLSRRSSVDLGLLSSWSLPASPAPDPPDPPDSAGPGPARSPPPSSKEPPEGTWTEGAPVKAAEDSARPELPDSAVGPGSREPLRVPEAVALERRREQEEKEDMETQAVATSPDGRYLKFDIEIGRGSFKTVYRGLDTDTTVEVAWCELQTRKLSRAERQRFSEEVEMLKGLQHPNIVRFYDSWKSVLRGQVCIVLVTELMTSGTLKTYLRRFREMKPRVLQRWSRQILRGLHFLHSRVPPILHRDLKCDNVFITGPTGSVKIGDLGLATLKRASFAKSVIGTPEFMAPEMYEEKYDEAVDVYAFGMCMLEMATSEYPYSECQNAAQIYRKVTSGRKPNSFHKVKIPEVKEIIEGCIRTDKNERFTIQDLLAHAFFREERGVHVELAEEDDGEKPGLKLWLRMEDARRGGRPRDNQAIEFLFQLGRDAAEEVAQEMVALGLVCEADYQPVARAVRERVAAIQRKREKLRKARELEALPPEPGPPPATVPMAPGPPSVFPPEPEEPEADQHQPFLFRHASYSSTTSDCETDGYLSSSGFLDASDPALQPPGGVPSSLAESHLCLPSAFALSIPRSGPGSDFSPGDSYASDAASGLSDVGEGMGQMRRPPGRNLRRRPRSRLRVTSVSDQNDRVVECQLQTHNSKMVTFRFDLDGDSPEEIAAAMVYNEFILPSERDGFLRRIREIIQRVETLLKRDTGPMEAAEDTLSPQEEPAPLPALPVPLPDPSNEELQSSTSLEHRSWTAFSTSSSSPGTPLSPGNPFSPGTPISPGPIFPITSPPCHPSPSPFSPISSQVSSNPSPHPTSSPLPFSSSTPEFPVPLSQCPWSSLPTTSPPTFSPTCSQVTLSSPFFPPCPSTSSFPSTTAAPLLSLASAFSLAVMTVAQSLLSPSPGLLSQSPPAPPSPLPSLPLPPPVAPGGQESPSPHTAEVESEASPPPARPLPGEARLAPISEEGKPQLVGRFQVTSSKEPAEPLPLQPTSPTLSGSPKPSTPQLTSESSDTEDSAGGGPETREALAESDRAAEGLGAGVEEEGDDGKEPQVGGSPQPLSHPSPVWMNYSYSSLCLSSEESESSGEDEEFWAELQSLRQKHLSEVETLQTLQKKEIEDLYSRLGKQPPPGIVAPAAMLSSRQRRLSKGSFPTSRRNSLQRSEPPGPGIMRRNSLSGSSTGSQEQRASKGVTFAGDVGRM

[5] = target: Serine/threonine-protein kinase WNK3 (Homo sapiens) (UniProt Q9BYP7); assay: Selectivity interaction (KinomeScan (DiscoverX)) EUB0000704a WNK3; details: at 1 µM
[6] = target: T2, Gamma-aminobutyric acid receptor subunit alpha-1 (Homo sapiens, UniProt P14867); assay: Selectivity interaction (GPCR panel (PDSP screen)) EUB0000704a GABRA1
T2 sequence (P14867 whole entry): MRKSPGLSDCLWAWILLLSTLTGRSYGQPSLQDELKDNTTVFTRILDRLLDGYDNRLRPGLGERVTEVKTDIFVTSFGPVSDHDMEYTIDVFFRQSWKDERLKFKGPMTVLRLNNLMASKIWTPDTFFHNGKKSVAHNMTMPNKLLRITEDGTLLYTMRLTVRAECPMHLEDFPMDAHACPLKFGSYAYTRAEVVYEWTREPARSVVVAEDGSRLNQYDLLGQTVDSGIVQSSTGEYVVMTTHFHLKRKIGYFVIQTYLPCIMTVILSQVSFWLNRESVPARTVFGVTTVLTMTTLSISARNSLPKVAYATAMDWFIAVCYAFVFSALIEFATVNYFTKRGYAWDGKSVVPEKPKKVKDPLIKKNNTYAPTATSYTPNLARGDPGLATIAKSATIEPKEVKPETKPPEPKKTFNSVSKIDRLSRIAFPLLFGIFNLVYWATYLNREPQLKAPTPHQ

[7] = target: Protein kinase C alpha type (Homo sapiens) (UniProt P17252); assay: Selectivity interaction (KinomeScan (DiscoverX)) EUB0000704a PRKCA; details: at 1 µM
[8] = target: T3, Alpha-2C adrenergic receptor (Homo sapiens, UniProt P18825); assay: Selectivity interaction (GPCR panel (PDSP screen)) EUB0000316b ADRA2C
T3 sequence (P18825 whole entry): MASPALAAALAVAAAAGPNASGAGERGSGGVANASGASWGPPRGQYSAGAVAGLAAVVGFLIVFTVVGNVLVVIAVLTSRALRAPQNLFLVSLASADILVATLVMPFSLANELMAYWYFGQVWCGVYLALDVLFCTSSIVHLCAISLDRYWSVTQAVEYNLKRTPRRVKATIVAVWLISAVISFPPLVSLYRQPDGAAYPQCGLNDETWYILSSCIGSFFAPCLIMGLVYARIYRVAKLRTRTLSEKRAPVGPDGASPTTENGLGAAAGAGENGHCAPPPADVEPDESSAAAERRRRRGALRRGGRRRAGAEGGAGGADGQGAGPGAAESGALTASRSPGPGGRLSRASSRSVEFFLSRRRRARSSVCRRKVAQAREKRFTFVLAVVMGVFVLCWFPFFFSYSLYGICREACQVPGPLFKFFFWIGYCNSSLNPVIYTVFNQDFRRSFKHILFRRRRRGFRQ

[9] = target: Cyclin-dependent kinase 4 (Homo sapiens) (UniProt P11802); assay: Selectivity interaction (KinomeScan (DiscoverX)) EUB0000316b CDK4; details: at 1 µM
[10] = target: Mitogen-activated protein kinase 8 (Homo sapiens, UniProt P45983); assay: Selectivity interaction (KinomeScan (DiscoverX)) EUB0000316b MAPK8; details: at 1 µM
Chain of Mitogen-activated protein kinase 8 (P45983 whole entry): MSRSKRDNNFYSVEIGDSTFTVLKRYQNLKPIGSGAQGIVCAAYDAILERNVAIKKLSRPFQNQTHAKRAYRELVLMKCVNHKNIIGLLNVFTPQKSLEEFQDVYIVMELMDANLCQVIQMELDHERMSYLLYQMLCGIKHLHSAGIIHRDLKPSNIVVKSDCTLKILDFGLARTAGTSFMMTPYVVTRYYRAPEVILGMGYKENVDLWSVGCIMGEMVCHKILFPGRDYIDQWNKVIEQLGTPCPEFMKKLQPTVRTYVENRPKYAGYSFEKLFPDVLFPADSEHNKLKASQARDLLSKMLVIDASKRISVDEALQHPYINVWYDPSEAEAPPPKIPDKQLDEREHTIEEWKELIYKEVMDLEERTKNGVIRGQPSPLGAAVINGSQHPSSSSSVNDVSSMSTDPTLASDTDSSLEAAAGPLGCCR

[11] = target: Serine/threonine-protein kinase WNK2 (Homo sapiens) (UniProt Q9Y3S1); assay: Selectivity interaction (KinomeScan (DiscoverX)) EUB0000316b WNK2; details: at 1 µM
[12] = target: T2, Gamma-aminobutyric acid receptor subunit alpha-1; assay: Selectivity interaction (GPCR panel (PDSP screen)) EUB0000316b GABRA1
[13] = target: Mitogen-activated protein kinase kinase kinase 14 (Homo sapiens) (UniProt Q99558); assay: Selectivity interaction (KinomeScan (DiscoverX)) EUB0000316b MAP3K14; details: at 1 µM
Chain of Mitogen-activated protein kinase kinase kinase 14 (Homo sapiens) (Q99558 whole entry, looked up): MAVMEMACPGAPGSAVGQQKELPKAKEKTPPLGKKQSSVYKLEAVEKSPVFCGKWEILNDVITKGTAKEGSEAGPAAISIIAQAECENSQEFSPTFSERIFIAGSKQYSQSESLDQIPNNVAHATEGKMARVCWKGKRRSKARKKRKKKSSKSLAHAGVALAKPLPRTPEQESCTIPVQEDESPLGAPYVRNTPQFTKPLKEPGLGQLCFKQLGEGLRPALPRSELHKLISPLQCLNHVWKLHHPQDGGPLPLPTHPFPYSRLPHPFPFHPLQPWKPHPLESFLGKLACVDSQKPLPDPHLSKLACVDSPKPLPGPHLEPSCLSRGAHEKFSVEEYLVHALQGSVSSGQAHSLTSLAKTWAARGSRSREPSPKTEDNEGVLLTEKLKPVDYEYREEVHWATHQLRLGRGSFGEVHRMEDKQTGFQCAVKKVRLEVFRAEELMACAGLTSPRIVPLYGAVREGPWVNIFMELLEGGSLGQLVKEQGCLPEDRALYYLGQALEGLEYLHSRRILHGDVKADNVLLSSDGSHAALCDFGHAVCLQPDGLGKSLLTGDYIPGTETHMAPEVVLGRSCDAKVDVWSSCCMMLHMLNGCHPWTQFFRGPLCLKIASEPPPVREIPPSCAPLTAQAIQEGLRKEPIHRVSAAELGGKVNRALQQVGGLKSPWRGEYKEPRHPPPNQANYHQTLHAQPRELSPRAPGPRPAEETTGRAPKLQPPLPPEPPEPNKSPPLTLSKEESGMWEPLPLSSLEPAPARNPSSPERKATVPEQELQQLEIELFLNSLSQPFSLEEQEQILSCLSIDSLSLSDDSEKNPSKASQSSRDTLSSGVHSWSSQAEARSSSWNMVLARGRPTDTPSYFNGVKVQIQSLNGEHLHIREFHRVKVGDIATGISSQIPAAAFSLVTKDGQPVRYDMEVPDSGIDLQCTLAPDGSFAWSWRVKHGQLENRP

[14] = target: T4, Receptor-interacting serine/threonine-protein kinase 4 (Homo sapiens) (UniProt P57078); assay: Selectivity interaction (KinomeScan (DiscoverX)) EUB0000316b RIPK4; details: at 1 µM
T4 sequence (whole entry): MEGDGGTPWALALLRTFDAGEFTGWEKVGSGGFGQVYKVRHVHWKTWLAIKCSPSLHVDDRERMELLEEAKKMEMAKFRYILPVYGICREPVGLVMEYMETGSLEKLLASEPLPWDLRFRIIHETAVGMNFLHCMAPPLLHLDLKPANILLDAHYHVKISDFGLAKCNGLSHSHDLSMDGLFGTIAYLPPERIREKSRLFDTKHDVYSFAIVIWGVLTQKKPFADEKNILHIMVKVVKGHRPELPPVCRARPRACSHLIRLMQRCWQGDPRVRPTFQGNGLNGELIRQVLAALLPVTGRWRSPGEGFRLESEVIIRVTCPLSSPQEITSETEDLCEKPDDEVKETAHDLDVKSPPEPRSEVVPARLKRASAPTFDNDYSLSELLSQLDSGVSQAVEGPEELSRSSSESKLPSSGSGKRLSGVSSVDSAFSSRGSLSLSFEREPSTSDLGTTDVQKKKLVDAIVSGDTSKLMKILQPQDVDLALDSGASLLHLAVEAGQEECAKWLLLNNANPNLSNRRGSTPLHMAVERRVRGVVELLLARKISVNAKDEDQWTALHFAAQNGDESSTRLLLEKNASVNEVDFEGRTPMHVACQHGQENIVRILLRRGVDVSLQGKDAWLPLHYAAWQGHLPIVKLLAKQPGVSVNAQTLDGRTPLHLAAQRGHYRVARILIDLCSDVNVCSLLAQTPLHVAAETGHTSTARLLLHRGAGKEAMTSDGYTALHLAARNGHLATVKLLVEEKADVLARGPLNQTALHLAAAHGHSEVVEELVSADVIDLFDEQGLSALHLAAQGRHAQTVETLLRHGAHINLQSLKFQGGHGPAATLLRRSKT

[15] = target: Histamine H3 receptor (Homo sapiens, UniProt Q9Y5N1); assay: Selectivity interaction (GPCR panel (PDSP screen)) EUB0000714a HRH3
Chain of Histamine H3 receptor (Q9Y5N1 whole entry): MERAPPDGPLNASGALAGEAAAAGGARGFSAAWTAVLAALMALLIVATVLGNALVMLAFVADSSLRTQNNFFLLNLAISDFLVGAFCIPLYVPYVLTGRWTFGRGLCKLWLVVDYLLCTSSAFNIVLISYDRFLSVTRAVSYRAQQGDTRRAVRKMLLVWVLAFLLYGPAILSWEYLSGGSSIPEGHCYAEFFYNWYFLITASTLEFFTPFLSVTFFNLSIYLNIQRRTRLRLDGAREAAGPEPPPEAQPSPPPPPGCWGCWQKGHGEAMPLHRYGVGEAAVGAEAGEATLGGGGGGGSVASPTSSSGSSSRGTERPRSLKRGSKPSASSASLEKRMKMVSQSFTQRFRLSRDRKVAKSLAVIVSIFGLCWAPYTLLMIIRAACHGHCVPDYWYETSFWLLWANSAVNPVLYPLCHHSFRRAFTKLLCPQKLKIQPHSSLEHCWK

[16] = target: T5, Dual specificity mitogen-activated protein kinase kinase 5 (Homo sapiens) (UniProt Q13163); assay: Selectivity interaction (KinomeScan (DiscoverX)) EUB0000714a MAP2K5; details: at 100 nM
T5 sequence (whole entry): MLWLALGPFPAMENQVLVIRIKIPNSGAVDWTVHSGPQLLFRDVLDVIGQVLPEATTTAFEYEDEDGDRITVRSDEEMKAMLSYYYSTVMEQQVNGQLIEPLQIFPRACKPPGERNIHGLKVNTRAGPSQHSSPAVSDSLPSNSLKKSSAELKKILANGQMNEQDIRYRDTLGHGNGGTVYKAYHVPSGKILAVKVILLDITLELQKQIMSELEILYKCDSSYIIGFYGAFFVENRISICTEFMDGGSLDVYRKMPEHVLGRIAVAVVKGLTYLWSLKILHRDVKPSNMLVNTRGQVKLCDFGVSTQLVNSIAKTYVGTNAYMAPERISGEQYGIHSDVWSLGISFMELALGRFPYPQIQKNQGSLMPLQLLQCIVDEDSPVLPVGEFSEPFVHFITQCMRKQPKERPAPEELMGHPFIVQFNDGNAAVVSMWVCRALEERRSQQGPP

[17] = target: Dual specificity mitogen-activated protein kinase kinase 3 (Homo sapiens) (UniProt P46734); assay: Selectivity interaction (KinomeScan (DiscoverX)) EUB0000714a MAP2K3; details: at 100 nM
Chain of Dual specificity mitogen-activated protein kinase kinase 3 (Homo sapiens) (P46734 whole entry): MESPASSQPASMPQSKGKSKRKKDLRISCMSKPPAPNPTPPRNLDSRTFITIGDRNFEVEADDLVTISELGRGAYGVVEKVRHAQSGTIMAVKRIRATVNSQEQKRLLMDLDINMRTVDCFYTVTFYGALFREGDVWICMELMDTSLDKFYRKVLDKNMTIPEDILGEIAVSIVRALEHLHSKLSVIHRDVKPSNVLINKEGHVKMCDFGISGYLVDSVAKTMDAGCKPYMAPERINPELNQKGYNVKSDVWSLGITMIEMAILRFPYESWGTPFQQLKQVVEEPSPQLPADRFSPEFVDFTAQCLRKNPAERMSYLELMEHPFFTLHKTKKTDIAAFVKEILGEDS

[18] = target: High affinity nerve growth factor receptor (Homo sapiens, UniProt P04629); assay: Selectivity interaction (KinomeScan (DiscoverX)) EUB0000714a NTRK1; details: at 100 nM
Chain of High affinity nerve growth factor receptor (P04629 33-796 limits assumed): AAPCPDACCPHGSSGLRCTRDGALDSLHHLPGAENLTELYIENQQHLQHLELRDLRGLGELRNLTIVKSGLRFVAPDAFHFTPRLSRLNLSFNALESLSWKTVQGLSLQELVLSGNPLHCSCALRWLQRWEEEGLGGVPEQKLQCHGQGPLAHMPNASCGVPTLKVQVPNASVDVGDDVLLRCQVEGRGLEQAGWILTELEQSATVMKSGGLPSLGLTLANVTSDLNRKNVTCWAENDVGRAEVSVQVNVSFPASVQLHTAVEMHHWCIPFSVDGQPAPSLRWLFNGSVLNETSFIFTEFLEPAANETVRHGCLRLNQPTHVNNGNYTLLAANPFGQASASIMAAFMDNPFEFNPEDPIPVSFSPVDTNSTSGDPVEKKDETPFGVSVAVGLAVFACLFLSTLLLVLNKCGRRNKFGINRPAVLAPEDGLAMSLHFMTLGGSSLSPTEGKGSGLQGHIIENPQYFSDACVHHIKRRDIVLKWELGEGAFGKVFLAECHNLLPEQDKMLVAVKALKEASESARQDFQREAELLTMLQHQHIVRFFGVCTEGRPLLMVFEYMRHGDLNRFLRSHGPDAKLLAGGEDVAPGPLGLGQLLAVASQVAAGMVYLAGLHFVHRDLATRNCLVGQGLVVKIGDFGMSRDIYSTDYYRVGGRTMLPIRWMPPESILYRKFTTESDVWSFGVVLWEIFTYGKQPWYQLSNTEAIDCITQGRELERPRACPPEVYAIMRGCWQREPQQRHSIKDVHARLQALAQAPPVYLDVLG

[19] = target: Phosphatidylinositol 4,5-bisphosphate 3-kinase catalytic subunit alpha isoform (Homo sapiens, UniProt P42336); assay: Selectivity interaction (KinomeScan (DiscoverX)) EUB0000714a PIK3CA; details: at 100 nM
[20] = target: Cyclin-dependent kinase 9 (Homo sapiens) (UniProt P50750); assay: Selectivity interaction (Kinase Profiler (Millipore)) EUB0000677a CDK9; details: at 1 µM
[21] = target: Casein kinase II subunit alpha (Homo sapiens, UniProt P68400); assay: Selectivity interaction (Kinase panel (radiometric kinase assay)) EUB0000677a CSNK2A1
[22] = target: T1, Serine/threonine-protein kinase PLK1; details: at 1 µM
[23] = system: T6, Receptor-type tyrosine-protein kinase FLT3 (Homo sapiens), P36888 [D835Y]; details: at 1 µM
T6 sequence (whole entry): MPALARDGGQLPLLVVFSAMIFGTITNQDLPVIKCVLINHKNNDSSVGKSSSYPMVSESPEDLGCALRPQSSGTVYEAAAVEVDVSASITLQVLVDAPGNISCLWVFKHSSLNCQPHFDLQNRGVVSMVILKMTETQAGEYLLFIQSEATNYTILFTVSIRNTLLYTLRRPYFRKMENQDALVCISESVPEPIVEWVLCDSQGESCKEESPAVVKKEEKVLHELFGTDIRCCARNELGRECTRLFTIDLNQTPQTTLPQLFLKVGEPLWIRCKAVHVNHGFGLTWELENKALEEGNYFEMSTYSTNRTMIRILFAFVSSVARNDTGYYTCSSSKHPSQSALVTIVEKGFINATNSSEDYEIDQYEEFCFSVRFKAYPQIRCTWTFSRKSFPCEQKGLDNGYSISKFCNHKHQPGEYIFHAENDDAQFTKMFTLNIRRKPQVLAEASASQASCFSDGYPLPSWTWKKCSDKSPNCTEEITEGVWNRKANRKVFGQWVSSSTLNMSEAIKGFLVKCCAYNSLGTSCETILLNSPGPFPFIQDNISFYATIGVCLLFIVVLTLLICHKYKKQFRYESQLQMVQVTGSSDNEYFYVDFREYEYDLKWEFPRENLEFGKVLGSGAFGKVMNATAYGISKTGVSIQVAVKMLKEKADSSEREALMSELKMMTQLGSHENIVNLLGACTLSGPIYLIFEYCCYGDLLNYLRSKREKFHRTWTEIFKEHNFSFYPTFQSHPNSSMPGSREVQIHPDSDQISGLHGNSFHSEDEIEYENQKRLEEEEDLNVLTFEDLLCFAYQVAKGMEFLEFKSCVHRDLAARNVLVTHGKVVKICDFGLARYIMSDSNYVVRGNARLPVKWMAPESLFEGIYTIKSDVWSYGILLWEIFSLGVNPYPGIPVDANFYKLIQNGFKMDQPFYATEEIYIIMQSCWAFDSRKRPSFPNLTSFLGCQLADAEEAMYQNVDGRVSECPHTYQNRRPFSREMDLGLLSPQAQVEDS

[24] = target: T7, Aurora kinase C (Homo sapiens) (UniProt Q9UQB9); assay: Selectivity interaction (KinomeScan (DiscoverX)) EUB0000723a AURKC; details: at 1 µM
T7 sequence (whole entry): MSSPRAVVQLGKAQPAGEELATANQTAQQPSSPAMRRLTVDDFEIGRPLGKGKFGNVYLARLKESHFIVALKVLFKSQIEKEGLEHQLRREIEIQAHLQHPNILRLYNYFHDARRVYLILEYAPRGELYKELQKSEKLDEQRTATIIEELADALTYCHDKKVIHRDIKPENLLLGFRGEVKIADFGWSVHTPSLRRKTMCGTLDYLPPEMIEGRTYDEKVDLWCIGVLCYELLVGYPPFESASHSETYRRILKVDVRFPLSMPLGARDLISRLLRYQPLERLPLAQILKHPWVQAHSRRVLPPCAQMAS

[25] = target: Aurora kinase C (Homo sapiens, UniProt Q9UQB9); assay: Selectivity interaction (NanoBRET assay (HEK293T cells)) EUB0000723a AURKC
[26] = target: Tyrosine-protein kinase ABL1 (Homo sapiens, UniProt P00519); assay: Selectivity interaction (NanoBRET assay (HEK293T cells)) EUB0000723a ABL1
[27] = system: Tyrosine-protein kinase ABL1 (Homo sapiens), P00519 [T315I]; assay: Selectivity interaction (KinomeScan (DiscoverX)) EUB0000723a ABL1; details: at 1 µM
[28] = target: 5-hydroxytryptamine receptor 7 (Homo sapiens, UniProt P34969); assay: Selectivity interaction (GPCR panel (PDSP screen)) EUB0000252b HTR7

% of control [1]: 38%
Ki [2]: > 10 µM
% of control [3]: 20%
% of control [4]: 32%
% of control [5]: 0%
Ki [6]: 0.774 µM
% of control [7]: 33%
SMILES: Cc1ccc(-c2cnc([C@@]3(O)CC[C@H](C(=O)O)C(C)(C)C3)s2)cc1Nc1cccc(C(F)(F)F)n1 [MRL-SYKi-NC]

Ki [8]: > 10 µM
% of control [9]: 63%
% of control [10]: 63%
% of control [11]: 62%
Ki [12]: 1.67 µM
% of control [13]: 63%
% of control [14]: 61%
SMILES: CC(=O)c1c(NS(C)(=O)=O)c2cc(-c3ccc(Cl)cc3)c(-c3ccc(Cl)cc3Cl)nc2n(C)c1=O [MRL-CB1-NC]

Ki [15]: > 10 µM
% of control [16]: 25.2%
% of control [17]: 29.5%
% of control [18]: 30.2%
% of control [19]: 14.7%
SMILES: Cc1cc(Nc2nccc(C)n2)cc(-c2cnc([C@@]3(O)CC[C@H](C(=O)O)C(C)(C)C3)s2)c1 [MRL-SYKi]

% of control [20]: 10%
IC50 [21]: 0.826 µM
% of control [22]: 3%
% of control [23]: 9%
SMILES: CN1CCN(c2ccc(OC(F)(F)F)c(Nc3ncc4c(n3)-c3c(c(C(N)=O)nn3CCO)CC4)c2)CC1 [ONVANSERTIB]

% of control [24]: 100%
IC50 [25]: > 10 µM
IC50 [26]: > 10 µM
% of control [27]: 100%
SMILES: O=C(NCCCN1CCOC1=O)c1cnc(NCc2cc(Br)ccc2Br)nc1NC1CCCC1

SMILES: N#CC1(c2ccccn2)CCN(Cc2cc(C(=O)O)c(=O)n3ccccc23)CC1 [MSD-M1PAM]
Ki [28]: > 10 µM
